# Key:
# [1] = tested on: Ceruloplasmin (CP); assay: Microarray gene expression in Hep3B cells: ceruloplasmin; assay type: cell-based, human; details: 2 μM, 6 hr
# Protocol: Hep3B cells (ATCC No. HB-8064) were grown in DMEM containing 8% fetal bovine serum. Hep3B cells were seeded into 6-well culture dishes at ˜500,000 cells per well. After 8 hours, the media was changed to DMEM containing 0.5% fetal bovine serum and the cells were incubated for an additional 16 hours. Compound B or compound D was added to the cells (2 μM final concentration) and the cells were incubated for various times. Control cells (no compound treatment, addition of DMSO alone) were harvested at 0, 6 and 48 hours. Harvested cells were assessed for cell viability (GUAVA), or added to RNA extraction buffer (RNeasy, Qiagen) and stored at −20° C. for subsequent RNA purification. Replicate microarrays were generated using RNA isolated from replicate experiments conducted on different days. Total RNA was isolated from cells using the RNeasy kit (Qiagen).
# RNA was precipitated in 0.3 M sodium acetate (pH 5.2), 50 ng/ml glycogen, and 2.5 volumes of ethanol for one hour at −20° C. Samples were centrifuged and pellets were washed with cold 80% ethanol, dried, and resuspend in water. Double stranded cDNA was synthesized using a T7-(dT)24 first strand primer (Affymetrix, Inc., Santa Clara Calif.) and the SUPERSCRIPT CHOICE system (Invitrogen) according to the manufacturer's instructions. The final cDNA was extracted with an equal volume of 25:24:1 phenol:chloroform:isoamyl alcohol using a PHASE LOCK GEL insert (Brinkman, Inc., Westbury N.Y.). The aqueous phase was collected and cDNA was precipitated using 0.5 volumes of 7.5 M ammonium acetate and 2.5 volumes of ethanol. Alternatively, cDNA was purified using the GENECHIP sample cleanup module (Affymetrix) according to the manufacturer's instructions.
# Biotin-labeled cRNA was synthesized from the cDNA in an in vitro […] (IVT) reaction using a BIOARRAY HighYield RNA transcript labeling kit (Enzo Diagnostics, Inc., Farmingdale N.Y.) according to the manufacturer's instructions. Final labeled product was purified and fragmented using the GENECHIP sample cleanup module (Affymetrix) according to the manufacturer's instructions.
# Hybridization cocktail was prepared by bringing […] probe to […] in 1× hybridization buffer (100 mM MES, 1 M [Na^+], 20 mM EDTA, 0.01% Tween 20), 100 µg/ml herring sperm DNA, 500 µg/ml acetylated BSA, 0.03 nM contol oligo B2 (Affymetrix), and 1×GENECHIP eukaryotic hybridization control (Affymetrix). The cocktail was sequentially incubated at 99° C. for 5 minutes and 45° C. for 5 minutes, and then centrifuged for 5 minutes. The Human Genome U133A array (Affymetrix) was brought to room temperature and then prehybridized with 1× hybridization buffer at 45° C. for 10 minutes with rotation. The buffer was then replaced with […] hybridization cocktail and the array was hybridized for 16 hours at 45° C. at 60 rpm with counter balance. Following hybridization, arrays were washed once with 6×SSPE, 0.1% Tween 20, and then washed and stained using R-phycoerythrin-conjugated streptavidin (Molecular Probes, Eugene Oreg.), goat anti-streptavidin antibody (Vector Laboratories, Burlingame Calif.), and a GENECHIP Fluidics Station 400 instrument (Affymetrix) according to the manufacturer's micro_1v1 protocol (Affymetrix). Arrays were analyzed using a GENEARRAY scanner (Affymetrix) and Microarray Suite software (Affymetrix).
# The Human Genome U133A array (Affymetrix) represents all sequences in the Human Unigene database build 133 (National Center for Biotechnology Information, Bethesda Md.), including approximately 14,500 well-characterized human genes.
# RNA quality was monitored by capillary electrophoresis (Agilent Bioanalyzer). Hybridization cocktails were prepared as described (Affymetrix), and hybridized to Affymetrix human U133A arrays containing 22,283 probe sets. Array performance was analyzed with Affymetrix MicroArray Suite (MAS) software and individual probe sets were assigned “present”, “marginal, and “absent” calls according to software defaults. […]
# [2] = tested on: erythropoietin-resistant anemia; details: Salvarani et al. (1996); Goch et al. (1995); cited from earlier work
# [3] = tested on: VCAM-1; assay: TNF-α induced VCAM-1 expression in HUVEC; assay type: cell-based, human; details: TNF-α 1 ng/ml, 1 day
# Excerpt: Endothelial cell adhesiveness for lymphocytes occurs, in part, by endothelial cell expression of vascular cell adhesion molecule (VCAM)-1. VCAM-1 expression in endothelial cells is induced by various inflammatory cytokines, such as TNF-α. To investigate the effect of HIF prolyl hydroxylase inhibition on TNF-α induced VCAM-1 expression, HUVEC (human umbilical vein endothelial cells) were stimulated with TNF-α in the absence or presence of various concentrations of compound B or compound C for 1 day. VCAM expression was then measured.
# (§1) Endothelial E-selectin belongs to the selectin family of cellular adhesion molecules mediating the initial attachment of leukocytes to vascular endothelial cells in inflammatory events. IL-1β, TNF-α, and lipopolysaccharides each induce the expression of E-selectin. (See, e.g., Bevilacqua et al. (1987) Proc Natl Acad Sci USA 84:9238-9242 and Bevilacqua and van Furth (1993) J Leukoc Biol 54:363-378.) To investigate the effect of HIF prolyl hydroxylase inhibition on TNF-α induced E-selectin expression, HUVECs were stimulated with 1 ng/ml TNF-α in the absence or presence of various concentrations of compound B or compound C for 1 day. E-selectin and VCAM expression were then measured.
# [4] = tested on: VCAM-1; assay: IL-1β induced VCAM-1 expression in HUVEC; assay type: cell-based, human; details: IL-1β 1 ng/ml, 1 day
# Protocol: To investigate the effect of HIF prolyl hydroxylase inhibition on IL-1β induced VCAM-1 expression, HUVEC (human umbilical vein endothelial cells) were stimulated with IL-1β in the absence or presence of various concentrations of compound B or compound C for 1 day. VCAM expression was then measured.
# [5] = tested on: E-selectin; assay: TNF-α induced E-selectin expression in HUVEC; assay type: cell-based, human; details: 1 ng/ml TNF-α, various concentrations, 1 day
# Excerpt: as §1
# [6] = tested on: E-selectin; assay: IL-1β induced E-selectin expression in HUVEC; assay type: cell-based, human; details: 1 ng/ml IL-1β, 1 day
# Protocol: To investigate the effect of HIF prolyl hydroxylase inhibition on IL-1β induced E-selectin expression, HUVECs were stimulated with 1 ng/ml IL-1β in the absence or presence of various concentrations of compound B or compound C for 1 day. E-selectin expression was then measured.
# [7] = tested on: E-selectin; assay: Cell surface E-selectin (cell-based ELISA) in HUVEC pretreated with compound, then cytokines; parameters: species or system human; details: HUVEC pretreated 24 hours
# Protocol: HUVEC were treated with vehicle control or various concentrations of compound B or compound C for 24 hours. Cells were washed and then stimulated with either 1 ng/ml TNF-α, 1 ng/ml IL-1β, or a combination of 1 ng/ml each of TNF-α, IL-1β, and IFN-γ for 4 hours. Cell surface expression of E-selectin was measured by cell-based ELISA.
# [8] = tested on: NRAMP2; assay: NRAMP2 mRNA in small intestine of mice after IV administration (microarray); assay type: in vivo, mouse; details: 60 mg/kg IV, 4 hours
# Protocol: In another experiment, mRNA was isolated from small intestine harvested 4 hours following IV administration of 60 mg/kg compound A, compound B, and compound C to mice. Probes were prepared from each of two animals from 5 treatment groups, and hybridized to Affymetrix mouse MOE430Aplus2 microarrays (one animal per array). Statistical comparisons of data obtained from arrays from treated versus non-treated animals was performed. […] Expression levels are shown as fold-induction over control, untreated animals for each expressed gene.
# [9] = tested on: EPO production; assay: Secreted EPO (ELISA) in Hep3B cells treated with IL-6; assay type: cell-based; details: 10 ng/ml IL-6, absence of compound
# Protocol: Secreted EPO levels were determined using a commercially available ELISA kit (R&D Systems, catalog no. DEP00). […] As shown in FIGS. 27A and 27B, Hep3B cells treated with IL-6 increased EPO expression slightly above that in non-treated cells. Specifically, EPO levels in control cells was approximately 20 mIU/ml, while that in cells treated with 10 ng/ml IL-6 was approximately 50 mIU/ml.
molecule,measurement,setting,value
"COc1ccc(CCN(CCC(=O)NO)S(=O)(=O)c2ccc(NC(=O)N(Cc3ccccc3)Cc3ccccc3)cc2)cc1 [Compound D, 3-{[4-(3,3-Dibenzyl-ureido)-benzenesulfonyl]-[2-(4-methoxy-phenyl)-ethyl]-amino}-N-hydroxy-propionamide]","Ceruloplasmin (CP) fold-increase in mRNA levels above control, first data point",[1],2.06 fold
same,"Ceruloplasmin (CP) fold-increase in mRNA levels above control, second data point",[1],2.387 fold
CC(=O)N(O)CCCCCNC(=O)CCC(=O)N(O)CCCCCNC(=O)CCC(=O)N(O)CCCCCN [desferrioxamine],"efficacy in erythropoietin-resistant anemia, e.g., anemia of chronic disease",[2],some efficacy
"O=C(O)CNC(=O)c1ncc2cc(Sc3ccccc3)ccc2c1O [C, [(4-Hydroxy-7-phenylsulfanyl-isoquinoline-3-carbonyl)-amino]-acetic acid]",inhibition of TNF-α induced VCAM-1 expression,[3],does-dependent inhibition of TNF-α induced VCAM-1 expression
same,inhibition of IL-1β induced VCAM-1 expression,[4],does-dependent inhibition of IL-1β induced VCAM-1 expression
same,inhibition of TNF-α induced E-selectin expression,[5],dose-dependent inhibition of TNF-α induced VCAM and E-selectin expression
same,inhibition of IL-1β induced E-selectin expression,[6],dose-dependent inhibition of IL-1β induced E-selectin expression
same,induction of cell surface E-selectin expression,[7]; then 1 ng/ml TNF-α or 1 ng/ml IL-1β for 4 hours,inhibited the induction of cell surface E-selectin expression
same,cell surface E-selectin expression,"[7]; then TNF-α, IL-1β and IFN-γ, 1 ng/ml each, 4 hours",decreased E-selectin expression
same,NRAMP2 mRNA expression in small intestine,[8],increasing expression of NRAMP2 in intestine
"IL-6: cytokine added to Hep3B cells, alone or with compound A or compound B [reference compound]",EPO levels,[9],approximately 50 mIU/ml

# From patent US11680047B2, “Enhanced erythropoiesis and iron metabolism” (FibroGen, Inc., priority 2003, dated 2023)
